Reference: paper PMC9779727, “Identification of Novel Artemisinin Hybrids Induce Apoptosis and Ferroptosis in MCF-7 Cells” (International Journal of Molecular Sciences, 2022)

Columns and labels:
Format in all cases: cell-based, human
[1] = test system: lung cancer A549 cells; experiment: MTT antiproliferation assay, A549; conditions: means ± SD, n = 3
From the text: (§1) The target hybrids A1–A15 were screened for their antiproliferation activities against five human cancer cell lines (lung cancer A549 cells, breast cancer MCF-7 and MDA-MB-231 cells, colon cancer HCT116 cells and ovarian cancer SK-OV-3 cells) in vitro by the standard MTT method, and 5-fluorouracil (5-FU) and ART were coassayed as controls. […] Therefore, the most promising hybrid, A8, was chosen for further exploration of the preliminary mechanism of MCF-7 cell antiproliferation.
(§2) Cytotoxicity of test compounds against five different tumor cell lines were evaluated using an MTT assay in vitro. Cells were seeded into 96-well plates at a density of 5 × 10^4 cells per well and stabilized at 37 °C with 5% CO2 for 24 h. Compounds A1–A15, ART and 5-FU were added to each well at various concentrations and then the cells were incubated for 48 h. The MTT solution (100 μL 0.5 mg/mL^−1) was added to each well, and the cells were incubated for another 4 h. Then, 150 μL DMSO was added to each well and the absorbance of samples was measured at 492 nm. The IC50 values were calculated according to Logit method after getting the inhibitory rate.

[2] = test system: breast cancer MDA-MB-231 cells; experiment: MTT antiproliferation assay, MDA-MB-231; conditions: means ± SD, n = 3
From the text: as §1, §2

[3] = test system: colon cancer HCT116 cells; experiment: MTT antiproliferation assay, HCT116; conditions: means ± SD, n = 3
From the text: as §1, §2

[4] = test system: breast cancer MCF-7 cells; experiment: MTT antiproliferation assay, MCF-7; conditions: means ± SD, n = 3
From the text: as §1, §2

[5] = test system: ovarian cancer SK-OV-3 cells; experiment: MTT antiproliferation assay, SK-OV-3; conditions: means ± SD, n = 3
From the text: as §1, §2

[6] = test system: GPX4; experiment: Western blotting, GPX4 expression; conditions: MCF-7, added to A8 treatment
Procedure: We examined the effect of A8 on the expression of GPX4 as well, which is vital in preventing ferroptosis. […] Thus, we concluded that A8 induced the accumulation of ROS and lipid peroxidation and suppressed GSH levels and the expression of GPX4, thereby leading to the induction of ferroptosis.
MCF-7 cells were seeded at a density of 4 × 10^5 cells per well and treated with various concentrations of compound A8 (0, 2.5, 5 and 10 μM) for 48 h. After this, cells were collected and washed twice with ice-cold DPBS. The pellets were resuspended in a total protein extraction buffer (20 mM HEPES, 350 mM NaCl, 20% glycerol, 1% NP-40, 1 mM MgCl2, 0.5 mM EDTA, 0.1 mM EGTA, 0.1 mM DTT, 0.1 mM PMSF) containing a protease inhibitor cocktail and incubated on ice for 30 min with intermittent mixing. The protein concentration was measured using the Bradford reagent (Bio-Rad Laboratories Inc., Hercules, CA, USA). An equal amount (20 μg) of protein was loaded on 10% polyacrylamide gels and transferred to a nitrocellulose membrane. After blocking with 5% skimmed milk, the membrane was incubated at 4 °C overnight with specific primary antibodies. The membrane was washed and incubated at room temperature for 1 h with secondary antibodies conjugated with horseradish peroxidase (HRP). Finally, the immunoblot was developed for visualization using a chemiluminescence kit. […]

[7] = test system: MCF-7 cells; experiment: Lipid peroxidation (MDA) detection; conditions: MCF-7, added to A8 treatment
From the text: We also determined the effect of A8 on the expression of GSH and MDA (lipid peroxidation).
Lipid peroxidation assay kit (Beyotime, Shanghai, China) was used to detect malonaldehyde (MDA), together with GSH level assay, present in samples, as per the manufacturer’s instruction with slight modifications.

For `O=c1[nH]cc(F)c(=O)[nH]1` [5FU, 5-fluorouracil, reference compound], the IC50 ([1]; Homo sapiens, A549, 48 h) was > 30 µM, the IC50 ([2]; Homo sapiens, MDA-MB-231, 48 h) was 27.7 ± 1.23 µM and the IC50 ([3]; Homo sapiens, HCT-116, 48 h) was 18.4 ± 1.14 µM. The IC50 ([4]; Homo sapiens, MCF7, 48 h) was 26.1 ± 0.87 µM and the IC50 ([5]; Homo sapiens, SK-OV-3, 48 h) was > 30 µM.
For `CC1CCC2C(C)C(OC(=O)CCC(=O)NCc3nnc(Nc4ccc(OC(F)(F)F)cc4)o3)OC3OC4(C)CCC1C32OO4` (centres unmarked) [A1], the IC50 ([1]; 48 h) was > 30 µM, the IC50 ([2]; 48 h) was > 30 µM and the IC50 ([3]; 48 h) was > 30 µM. For the same molecule, the IC50 ([4]; 48 h) was 5.2 ± 1.38 µM and the IC50 ([5]; 48 h) was > 30 µM.
For `Cc1ccc(Nc2nnc(CNC(=O)CCC(=O)OC3OC4OC5(C)CCC6C(C)CCC(C3C)C46OO5)o2)cc1` (centres unmarked) [A2], the IC50 ([1]; 48 h) was > 30 µM, the IC50 ([2]; 48 h) was 4.89 ± 1.58 µM and the IC50 ([3]; 48 h) was 14.8 ± 1.77 µM. The IC50 ([4]; 48 h) was 4.26 ± 0.17 µM and the IC50 ([5]; 48 h) was > 30 µM.
In the case of `CCOc1ccccc1Nc1nnc(CNC(=O)CCC(=O)OC2OC3OC4(C)CCC5C(C)CCC(C2C)C35OO4)o1` (centres unmarked) [A3], the IC50 ([1]; 48 h) is reported as > 30 µM, the IC50 ([2]; 48 h) is reported as > 30 µM and the IC50 ([3]; 48 h) is reported as > 30 µM. The IC50 ([4]; 48 h) was 6.82 ± 0.25 µM and the IC50 ([5]; 48 h) was > 30 µM.
For `CC1CCC2C(C)C(OC(=O)CCC(=O)NCc3nnc(Nc4c(F)cccc4F)o3)OC3OC4(C)CCC1C32OO4` (centres unmarked) [A4], the IC50 ([1]; 48 h) was > 30 µM, the IC50 ([2]; 48 h) was > 30 µM and the IC50 ([3]; 48 h) was > 30 µM. The IC50 ([4]; 48 h) was > 30 µM and the IC50 ([5]; 48 h) was > 30 µM.
`CC1CCC2C(C)C(OC(=O)CCC(=O)NCc3nnc(Nc4ccc(C(F)(F)F)cc4)o3)OC3OC4(C)CCC1C32OO4` (centres unmarked) [A5] was tested, and the IC50 ([1]; 48 h) was > 30 µM, the IC50 ([2]; 48 h) was > 30 µM and the IC50 ([3]; 48 h) was > 30 µM. For the same molecule, the IC50 ([4]; 48 h) was > 30 µM and the IC50 ([5]; 48 h) was > 30 µM.
For `CC1CCC2C(C)C(OC(=O)CCC(=O)NCc3nnc(Nc4ccc(Cl)cc4)o3)OC3OC4(C)CCC1C32OO4` (centres unmarked) [A6], the IC50 ([1]; 48 h) was > 30 µM, the IC50 ([2]; 48 h) was > 30 µM and the IC50 ([3]; 48 h) was > 30 µM. The IC50 ([4]; 48 h) was > 30 µM and the IC50 ([5]; 48 h) was > 30 µM.
`CC1CCC2C(C)C(OC(=O)CCC(=O)NCc3nnc(Nc4cc(Br)ccc4Br)o3)OC3OC4(C)CCC1C32OO4` (centres unmarked) [A7] was tested, and the IC50 ([1]; 48 h) was > 30 µM, the IC50 ([2]; 48 h) was > 30 µM and the IC50 ([3]; 48 h) was > 30 µM. The IC50 ([4]; 48 h) was > 30 µM and the IC50 ([5]; 48 h) was > 30 µM.
In the case of `CC1CCC2C(C)C(OC(=O)CCC(=O)NCc3nnc(Nc4ccccc4F)o3)OC3OC4(C)CCC1C32OO4` (centres unmarked) [A9], the IC50 ([1]; 48 h) is reported as > 30 µM, the IC50 ([2]; 48 h) is reported as > 30 µM and the IC50 ([3]; 48 h) is reported as > 30 µM. The IC50 ([4]; 48 h) was 8.89 ± 0.39 µM and the IC50 ([5]; 48 h) was > 30 µM.
In the case of `CC1CCC2C(C)C(OC(=O)CCC(=O)NCc3nnc(Nc4ccc(C(C)(C)C)cc4)o3)OC3OC4(C)CCC1C32OO4` (centres unmarked) [A10], the IC50 ([1]; 48 h) is reported as > 30 µM, the IC50 ([2]; 48 h) is reported as > 30 µM and the IC50 ([3]; 48 h) is reported as > 30 µM. For the same molecule, the IC50 ([4]; 48 h) was 11.1 ± 1.28 µM and the IC50 ([5]; 48 h) was > 30 µM.
`CC1CCC2C(C)C(OC(=O)CCC(=O)NCc3nnc(Nc4ccc(Br)cc4)o3)OC3OC4(C)CCC1C32OO4` (centres unmarked) [A11] was tested, and the IC50 ([1]; 48 h) was > 30 µM, the IC50 ([2]; 48 h) was > 30 µM and the IC50 ([3]; 48 h) was > 30 µM. For the same molecule, the IC50 ([4]; 48 h) was > 30 µM and the IC50 ([5]; 48 h) was > 30 µM.
For `Cc1cc(C)cc(Nc2nnc(CNC(=O)CCC(=O)OC3OC4OC5(C)CCC6C(C)CCC(C3C)C46OO5)o2)c1` (centres unmarked) [A13], the IC50 ([1]; 48 h) was > 30 µM, the IC50 ([2]; 48 h) was > 30 µM and the IC50 ([3]; 48 h) was > 30 µM. For the same molecule, the IC50 ([4]; 48 h) was 9.72 ± 0.11 µM and the IC50 ([5]; 48 h) was > 30 µM.
`COc1ccc(Nc2nnc(CNC(=O)CCC(=O)OC3OC4OC5(C)CCC6C(C)CCC(C3C)C46OO5)o2)cc1` (centres unmarked) [A14] was tested, and the IC50 ([1]; 48 h) was > 30 µM, the IC50 ([2]; 48 h) was 19.4 ± 0.91 µM and the IC50 ([3]; 48 h) was > 30 µM. The IC50 ([4]; 48 h) was 6.86 ± 0.73 µM and the IC50 ([5]; 48 h) was > 30 µM.
With `Cc1ccc(Nc2nnc(CNC(=O)CCC(=O)OC3OC4OC5(C)CCC6C(C)CCC(C3C)C46OO5)o2)c(C)c1` (centres unmarked) [A15] the IC50 ([1]; 48 h) was > 30 µM, the IC50 ([2]; 48 h) was > 30 µM and the IC50 ([3]; 48 h) was > 30 µM. For the same molecule, the IC50 ([4]; 48 h) was > 30 µM and the IC50 ([5]; 48 h) was > 30 µM.
With `C[C@@H]1CC[C@H]2[C@@H](C)C(=O)O[C@@H]3O[C@@]4(C)CC[C@@H]1[C@]32OO4` [ART, Artemisinin] the IC50 ([1]; Homo sapiens, A549, 48 h) was 27.2 ± 0.67 µM, the IC50 ([2]; Homo sapiens, MDA-MB-231, 48 h) was > 30 µM and the IC50 ([3]; Homo sapiens, HCT-116, 48 h) was > 30 µM. The IC50 ([4]; Homo sapiens, MCF7, 48 h) was > 30 µM and the IC50 ([5]; Homo sapiens, SK-OV-3, 48 h) was > 30 µM.
With `CCOC(=O)c1ccc(NC2CCCCC2)c(N)c1` [Fer-1, ferrostatin-1, reference compound] the “effect on A8-suppressed GPX4 expression (in words)” value [6] was “restored the expression of GPX4” and the “effect on A8-induced lipid peroxide accumulation (in words)” value [7] was “reversed lipid peroxide accumulation”.
